Key:
[1] = Hoechst 33342 nuclear staining; type: cell-based; details: for Hoechst 33342 nuclear staining score, H460: H460 cells; for Hoechst 33342 nuclear staining score, HeLa: HeLa cells; for Hoechst 33342 nuclear staining score, Jily: Jily cells; for Hoechst 33342 nuclear staining score, Jurkat: Jurkat cells; for Hoechst 33342 nuclear staining score, MRC5: MRC5 cells;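 for all read-outs here: apoptotic nuclei scored 0 none 1 weak under 50% of cells 2 strong over 50% of cells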
Summary of the method: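 After a further 30 min incubation, plates were inspected on a standard inverted fluorescence microscope. The fraction of apoptotic nuclei and other apoptosis-specific morphology were scored as 0 for no activity, 1 for weak activity in less than 50% of the cells, and 2 for strong activity in more than 50% of the cells.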

HeLa = assay: MTS proliferation assay; type: cell-based, human; details: 72 h
Summary of the method: (§1)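 Compounds at final 10/3/1/0.3 μM (added in complete medium, ≤5% DMSO); 72 h, culture conditions; + MTS, 3 h; A492.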

Jurkat = assay: MTS proliferation assay; type: cell-based, human; details: 72 h
Summary of the method: as §1

MRC5 = assay: MTS proliferation assay; type: cell-based; details: MRC5, 72 h
Summary of the method: as §1

Jily = assay: MTS proliferation assay; type: cell-based; details: 72 h
Summary of the method: as §1

Row | Structure (SMILES) | Hoechst 33342 nuclear staining score, H460 ([1]; conc 0.1) | Hoechst 33342 nuclear staining score, H460 ([1]; conc 0.3) | Hoechst 33342 nuclear staining score, H460 ([1]; conc 1) | Hoechst 33342 nuclear staining score, H460 ([1]; conc 3) | Hoechst 33342 nuclear staining score, HeLa ([1]; conc 0.1) | Hoechst 33342 nuclear staining score, HeLa ([1]; conc 0.3) | Hoechst 33342 nuclear staining score, HeLa ([1]; conc 1) | Hoechst 33342 nuclear staining score, HeLa ([1]; conc 3) | Hoechst 33342 nuclear staining score, Jily ([1]; conc 0.1) | Hoechst 33342 nuclear staining score, Jily ([1]; conc 0.3) | Hoechst 33342 nuclear staining score, Jily ([1]; conc 1) | Hoechst 33342 nuclear staining score, Jily ([1]; conc 3) | Hoechst 33342 nuclear staining score, Jurkat ([1]; conc 0.1) | Hoechst 33342 nuclear staining score, Jurkat ([1]; conc 0.3) | Hoechst 33342 nuclear staining score, Jurkat ([1]; conc 1) | Hoechst 33342 nuclear staining score, Jurkat ([1]; conc 3) | Hoechst 33342 nuclear staining score, MRC5 ([1]; conc 0.1) | Hoechst 33342 nuclear staining score, MRC5 ([1]; conc 0.3) | Hoechst 33342 nuclear staining score, MRC5 ([1]; conc 1) | Hoechst 33342 nuclear staining score, MRC5 ([1]; conc 3) | other results
1 | COc1ccc(S(=O)(=O)n2cc(CNc3ccc(N4CCOCC4)cc3)cc2-c2cccc(OC)c2)cc1 [Example 98] | 0 | 0 | 0 | 0 | 0 | 0 | 0 | 0 | 0 | 0 | 0 | 0 | 0 | 0 | 0 | 1 (weak activity comprising less than 50% of the cells) | 0 | 0 | 0 | 0 | Hoechst 33342 nuclear staining score, PBLs ([1]; conc 0.1): 0; Hoechst 33342 nuclear staining score, PBLs ([1]; conc 0.3): 0; Hoechst 33342 nuclear staining score, PBLs ([1]; conc 1): 0; Hoechst 33342 nuclear staining score, PBLs ([1]; conc 3): 0; IC50 (HeLa): > 1000 nM; IC50 (Jurkat): > 1000 nM; IC50 (MRC5): > 1000 nM; IC50 (Jily): > 1000 nM
2 | COc1ccc(S(=O)(=O)n2cc(CNc3ccc(N4CCOCC4)cc3)cc2-c2c(OC)cc(OC)cc2OC)cc1 [Example 99] | 0 | 0 | 2 (strong activity comprising more than 50% of the cells) | 2 (strong activity comprising more than 50% of the cells) | 0 | 0 | 2 (strong activity comprising more than 50% of the cells) | 2 (strong activity comprising more than 50% of the cells) | 0 | 0 | 2 (strong activity comprising more than 50% of the cells) | 2 (strong activity comprising more than 50% of the cells) | 0 | 0 | 2 (strong activity comprising more than 50% of the cells) | 2 (strong activity comprising more than 50% of the cells) | 0 | 0 | 1 (weak activity comprising less than 50% of the cells) | 1 (weak activity comprising less than 50% of the cells) | Hoechst 33342 nuclear staining score, PBLs ([1]; conc 0.1): 0; Hoechst 33342 nuclear staining score, PBLs ([1]; conc 0.3): 0; Hoechst 33342 nuclear staining score, PBLs ([1]; conc 1): 0; Hoechst 33342 nuclear staining score, PBLs ([1]; conc 3): 0; IC50 (HeLa): < 1000 nM; IC50 (Jurkat): < 1000 nM; IC50 (MRC5): > 1000 nM; IC50 (Jily): < 1000 nM
3 | COc1ccc(S(=O)(=O)n2cc(-c3ccc(N)nc3)cc2-c2cc(OC)c(OC)c(OC)c2)cc1 [Example 100, 4-(2-Aminopyrid-5-yl)-1-p-methoxyphenylsulfonyl-2-(3,4,5-trimethoxyphenyl)-pyrrole] | 0 | 2 (strong activity comprising more than 50% of the cells) | 2 (strong activity comprising more than 50% of the cells) | 2 (strong activity comprising more than 50% of the cells) | 0 | 2 (strong activity comprising more than 50% of the cells) | 2 (strong activity comprising more than 50% of the cells) | 2 (strong activity comprising more than 50% of the cells) | 0 | 2 (strong activity comprising more than 50% of the cells) | 2 (strong activity comprising more than 50% of the cells) | 2 (strong activity comprising more than 50% of the cells) | 0 | 2 (strong activity comprising more than 50% of the cells) | 2 (strong activity comprising more than 50% of the cells) | 2 (strong activity comprising more than 50% of the cells) | 0 | 1 (weak activity comprising less than 50% of the cells) | 2 (strong activity comprising more than 50% of the cells) | 2 (strong activity comprising more than 50% of the cells) | Hoechst 33342 nuclear staining score, PBLs ([1]; conc 0.1): 0; Hoechst 33342 nuclear staining score, PBLs ([1]; conc 0.3): 0; Hoechst 33342 nuclear staining score, PBLs ([1]; conc 1): 0; Hoechst 33342 nuclear staining score, PBLs ([1]; conc 3): 0; IC50 (HeLa; Homo sapiens): < 200 nM; IC50 (Jurkat; Homo sapiens): < 200 nM; IC50 (MRC5; Homo sapiens): < 200 nM; IC50 (Jily): < 200 nM
4 | COc1ccc(S(=O)(=O)n2cc(-c3ccc(N)nc3)cc2-c2cc(OC)ccc2OC)cc1 [Example 101] | 0 | 2 (strong activity comprising more than 50% of the cells) | 2 (strong activity comprising more than 50% of the cells) | 2 (strong activity comprising more than 50% of the cells) | 0 | 2 (strong activity comprising more than 50% of the cells) | 2 (strong activity comprising more than 50% of the cells) | 2 (strong activity comprising more than 50% of the cells) | 0 | 2 (strong activity comprising more than 50% of the cells) | 2 (strong activity comprising more than 50% of the cells) | 2 (strong activity comprising more than 50% of the cells) | 0 | 2 (strong activity comprising more than 50% of the cells) | 2 (strong activity comprising more than 50% of the cells) | 2 (strong activity comprising more than 50% of the cells) | 0 | 2 (strong activity comprising more than 50% of the cells) | 2 (strong activity comprising more than 50% of the cells) | 2 (strong activity comprising more than 50% of the cells) | Hoechst 33342 nuclear staining score, PBLs ([1]; conc 0.1): 0; Hoechst 33342 nuclear staining score, PBLs ([1]; conc 0.3): 0; Hoechst 33342 nuclear staining score, PBLs ([1]; conc 1): 0; Hoechst 33342 nuclear staining score, PBLs ([1]; conc 3): 0; IC50 (HeLa): < 1000 nM; IC50 (Jurkat): < 200 nM; IC50 (MRC5): < 1000 nM; IC50 (Jily): < 200 nM
5 | COc1ccc(S(=O)(=O)n2cc(-c3ccc(N)nc3)cc2-c2ccc(OC)cc2OC)cc1 [Example 102] | 0 | 0 | 1 (weak activity comprising less than 50% of the cells) | 2 (strong activity comprising more than 50% of the cells) | 0 | 0 | 1 (weak activity comprising less than 50% of the cells) | 2 (strong activity comprising more than 50% of the cells) | 0 | 0 | 2 (strong activity comprising more than 50% of the cells) | 2 (strong activity comprising more than 50% of the cells) | 0 | 0 | 2 (strong activity comprising more than 50% of the cells) | 2 (strong activity comprising more than 50% of the cells) | 0 | 0 | 0 | 2 (strong activity comprising more than 50% of the cells) | Hoechst 33342 nuclear staining score, PBLs ([1]; conc 0.1): 0; Hoechst 33342 nuclear staining score, PBLs ([1]; conc 0.3): 0; Hoechst 33342 nuclear staining score, PBLs ([1]; conc 1): 0; Hoechst 33342 nuclear staining score, PBLs ([1]; conc 3): 0; IC50 (HeLa): > 1000 nM; IC50 (Jurkat): < 1000 nM; IC50 (MRC5): > 1000 nM; IC50 (Jily): < 1000 nM

Reference: patent US7612064B2, “Sulfopyrroles” (Takeda Pharmaceutical Company Limited, priority 2003, dated 2009)
